`O=C(NCCc1ccccc1C(F)(F)F)c1cc(-n2ncc(=O)[nH]c2=O)ccc1Cl` [Example 48, 2-Chloro-5-(3,5-dioxo-4,5-dihydro-3H-[1,2,4]triazin-2-yl)-N-[2-(2-trifluoromethyl-phenyl)-ethyl]-benzamide]: the melting point was 148 to 150 °C.

The values above are taken from patent US7235549B2, “Benzamide, heteroarylamide and reverse amides” (Pfizer Inc., priority 2001, dated 2007).
